Laboratory results taken from ChEMBL document CHEMBL2311267, “Design, synthesis and biological evaluation of glucose-containing scutellarein derivatives as neuroprotective agents based on metabolic mechanism of scutellarin in vivo” (Bioorg Med Chem Lett, 2013).
Values after ≈ are worked out from the molar mass of the structure shown.

Experiments:
[1] = tested on: Radical scavenging activity; assay: Antioxidant activity assessed as inhibition of DPPH-radical production; format: functional
PC-12 [2] = assay: Neuroprotective activity in rat PC12 cells assessed as inhibition of H2O2-induced cytotoxicity at 50 uM after 3 hrs by MTT assay relative to control; format: functional; conditions: PC-12, 3 h
[3] = Aqueous solubility of the compound by UV-Vis spectrophotometric analysis; format: physicochemical; conditions: water
Plasma [4] = assay: Anticoagulant activity in New Zealand white rabbit platelet-poor plasma assessed as fibrinogen content at 100 uM; format: functional, Oryctolagus cuniculus
Plasma [5] = assay: Anticoagulant activity in New Zealand white rabbit platelet-poor plasma assessed as activated partial thromboplastin time at 100 uM; format: functional, Oryctolagus cuniculus
PC-12 [6] = assay: Neuroprotective activity in rat PC12 cells assessed as inhibition of H2O2-induced cytotoxicity at 25 uM after 3 hrs by MTT assay relative to control; format: functional; conditions: PC-12, 3 h
Plasma [7] = assay: Anticoagulant activity in New Zealand white rabbit platelet-poor plasma assessed as prothrombin time at 100 uM; format: functional, Oryctolagus cuniculus
Plasma [8] = assay: Anticoagulant activity in New Zealand white rabbit platelet-poor plasma assessed as thrombin time at 100 uM; format: functional, Oryctolagus cuniculus

IC50 [1] [µM] | solubility [3] [µM] | Compound | inhibition at 50 µM (PC-12 [2]) [%] | Activity (Plasma [4]) [g/L] | APTT (Plasma [5]) [s] | inhibition at 25 µM (PC-12 [6]) [%] | PT (Plasma [7]) [s] | TT (Plasma [8]) [s]
28.4 | 8.93 (≈ 4 µg/mL) | O=c1cc(-c2ccc(O)cc2)oc2cc(O[C@@H]3O[C@H](CO)[C@H](O)[C@H](O)[C@H]3O)c(O)c(O)c12 | 83.3 | 20.81 | 39.62 | 61 | 9.93 | 29.17
34.9 | 8.19 (≈ 3.67 µg/mL) | O=c1cc(-c2ccc(O)cc2)oc2cc(O[C@@H]3O[C@H](CO)[C@@H](O)[C@H](O)[C@@H]3O)c(O)c(O)c12 | 56.4 | 26.68 | 38.2 | 23.5 | 6.57 | 20.54
25.3 | 7.85 (≈ 3.52 µg/mL) | O=c1cc(-c2ccc(O)cc2)oc2cc(O[C@@H]3O[C@H](CO)[C@@H](O)[C@H](O)[C@H]3O)c(O)c(O)c12 | 79.9 | 32.43 | 43.06 | 65.5 | 7.81 | 18.13

Compound | IC50 [1] [µM] | solubility [3] [µM] | inhibition at 50 µM (PC-12 [2]) [%] | Activity (Plasma [4]) [g/L] | APTT (Plasma [5]) [s] | inhibition at 25 µM (PC-12 [6]) [%] | PT (Plasma [7]) [s] | TT (Plasma [8]) [s]
O=C(O)[C@H]1O[C@@H](Oc2cc3oc(-c4ccc(O)cc4)cc(=O)c3c(O)c2O)[C@H](O)[C@@H](O)[C@@H]1O [SCUTELLARIN] | 26.8 | 7.53 (≈ 3.48 µg/mL) | 78.8 | 37.96 | 33.06 | 52.6 | 6.91 | 21.35
